In the assay the target is HLA B*1501 (Homo sapiens, UniProt P01889, A329T/A93T/A95T/C349S/D201E/D98Y/E187L/E204Q/E69M/E70A/K202T/N87E/Q94N/R155S/R180W/S121R/S35A/S48A/V306I/V36M/Y140S/Y91S). In words: biochemical. The assay is classed as binding.

Molecules are shown by their SMILES. Where a SMILES comes first, the peptide text is derived from it.

For orientation: IC50 means the concentration at which inhibition is half-maximal. Molecule `CC(C)C[C@H](N)C(=O)N[C@@H](CO)C(=O)N[C@@H](CCCNC(=N)N)C(=O)N[C@H](C(=O)N[C@@H](Cc1ccccc1)C(=O)N[C@@H](Cc1ccccc1)C(=O)N[C@@H](CS)C(=O)N[C@H](C(=O)N[C@@H](Cc1ccc(O)cc1)C(=O)O)C(C)C)C(C)C` [3102.0840] (H-LSRVFFCVY-OH) showed an IC50 of 2.9 nM.

In turn, `CC[C@H](C)[C@H](NC(=O)[C@@H](NC(=O)[C@H](Cc1ccccc1)NC(=O)[C@H](CCCCN)NC(=O)[C@H](CCC(N)=O)NC(=O)[C@@H](N)CCSC)[C@@H](C)O)C(=O)N[C@@H](CC(C)C)C(=O)N[C@@H](CCC(=O)O)C(=O)N[C@@H](Cc1ccc(O)cc1)C(=O)O` [3102.0953] (H-MQKFTILEY-OH) returned an IC50 of 10 nM. Against the preceding molecule, the IC50 is about 3.4-fold higher.

On to `CSCC[C@H](NC(=O)[C@@H](NC(=O)[C@H](CC(C)C)NC(=O)[C@H](CC(C)C)NC(=O)[C@H](Cc1ccc(O)cc1)NC(=O)[C@H](CCC(N)=O)NC(=O)[C@@H](N)CC(N)=O)[C@@H](C)O)C(=O)N[C@@H](Cc1ccccc1)C(=O)N[C@@H](Cc1ccccc1)C(=O)O` [3102.0819] (H-NQYLLTMFF-OH), for which inhibition was half-maximal at 1.2 nM (IC50).

`CSCC[C@H](NC(=O)[C@H](Cc1ccc(O)cc1)NC(=O)[C@H](CO)NC(=O)[C@H](CCC(=O)O)NC(=O)[C@H](Cc1ccc(O)cc1)NC(=O)[C@H](CS)NC(=O)[C@H](Cc1c[nH]cn1)NC(=O)[C@H](CC(C)C)NC(=O)[C@@H](N)CCSC)C(=O)O` [3102.0879] (H-MLHCYESYM-OH) displayed an IC50 of 97 nM.

With `CC[C@H](C)[C@H](NC(=O)[C@@H](N)Cc1c[nH]cn1)C(=O)N[C@@H](CC(N)=O)C(=O)N[C@@H](CCCCN)C(=O)N[C@@H](CC(C)C)C(=O)N[C@@H](Cc1ccccc1)C(=O)N[C@@H](CO)C(=O)N[C@H](C(=O)N[C@@H](Cc1ccccc1)C(=O)O)C(C)C` [3102.0997] (H-HINKLFSVF-OH), inhibition was half-maximal at 0.92 nM (IC50).

In turn, `CC[C@H](C)[C@H](NC(=O)[C@H](Cc1ccc(O)cc1)NC(=O)[C@@H](NC(=O)[C@H](CC(N)=O)NC(=O)[C@H](CCC(=O)O)NC(=O)[C@@H](N)CCSC)C(C)C)C(=O)N[C@@H](CO)C(=O)N[C@@H](CO)C(=O)N[C@@H](Cc1ccc(O)cc1)C(=O)O` [3102.1042] (H-MENVYISSY-OH) returned an IC50 of 2 nM.

`CC(C)C[C@H](NC(=O)[C@H](CCCCN)NC(=O)[C@H](CCCCN)NC(=O)[C@H](CC(C)C)NC(=O)[C@@H](N)CC(C)C)C(=O)N[C@@H](CC(N)=O)C(=O)N[C@@H](CO)C(=O)N[C@@H](Cc1ccccc1)C(=O)NCC(=O)O` [3102.1020] (H-LLKKLNSFG-OH) returned an IC50 of 45 nM.

Regarding `CC(C)C[C@H](NC(=O)[C@H](CCC(=O)O)NC(=O)[C@@H]1CCCN1C(=O)[C@@H](NC(=O)[C@H](Cc1ccc(O)cc1)NC(=O)[C@@H](NC(=O)[C@@H](N)Cc1ccccc1)C(C)C)C(C)C)C(=O)N[C@@H](CO)C(=O)N[C@@H](Cc1ccccc1)C(=O)O` [3102.1280] (H-FVYVPELSF-OH), half-maximal inhibition (IC50) was put at 0.96 nM.

For the molecule `CC[C@H](C)[C@H](NC(=O)[C@H](CCSC)NC(=O)[C@H](C)N)C(=O)N[C@@H](CCC(=O)O)C(=O)N[C@@H](CC(C)C)C(=O)N[C@@H](CS)C(=O)NCC(=O)N[C@@H](C)C(=O)N[C@@H](Cc1ccccc1)C(=O)O` [3102.1013] (H-AMIELCGAF-OH), it took 0.34 nM to reach half-maximal inhibition (IC50).

As to `CC[C@H](C)[C@H](N)C(=O)N[C@H](C(=O)N[C@@H](CO)C(=O)N[C@@H](CO)C(=O)N[C@@H](CO)C(=O)N[C@H](C(=O)N[C@@H](CC(C)C)C(=O)N[C@@H](Cc1ccc(O)cc1)C(=O)N[C@@H](Cc1ccccc1)C(=O)O)[C@@H](C)O)[C@@H](C)CC` [3102.1018] (H-IISSSTLYF-OH), the midpoint of inhibition, the IC50, lay at 1.1 nM.

`CC[C@H](C)[C@H](NC(=O)CN)C(=O)N[C@@H](CC(N)=O)C(=O)N[C@@H](CCCCN)C(=O)N[C@@H](CCCNC(=N)N)C(=O)N[C@@H](CO)C(=O)N[C@H](C(=O)N1CCC[C@H]1C(=O)N[C@@H](Cc1ccccc1)C(=O)O)[C@@H](C)O` [3102.0792] (H-GINKRSTPF-OH) had a half-maximal inhibitory concentration (IC50) of 0.72 nM.

Consider `CC[C@H](C)[C@H](NC(=O)CNC(=O)[C@@H](N)CO)C(=O)NCC(=O)N[C@H](C(=O)N[C@@H](Cc1ccccc1)C(=O)N[C@@H](CC(C)C)C(=O)N[C@@H](Cc1c[nH]cn1)C(=O)N[C@@H](Cc1ccc(O)cc1)C(=O)O)[C@@H](C)O` [3102.0852] (H-SGIGTFLHY-OH), for which the IC50 is 23 nM.

Take `C[C@H](NC(=O)[C@H](CO)NC(=O)[C@@H](N)CCCNC(=N)N)C(=O)N[C@@H](CC(N)=O)C(=O)N[C@H](C(=O)N[C@@H](CO)C(=O)N[C@@H](C)C(=O)N1CCC[C@H]1C(=O)N[C@@H](Cc1ccccc1)C(=O)O)[C@@H](C)O` [3102.0964] (H-RSANTSAPF-OH): the IC50 turned out to be 0.68 nM.

Turning to `CC[C@H](C)[C@H](NC(=O)[C@H](CO)NC(=O)[C@@H](N)CCCNC(=N)N)C(=O)N[C@@H](CO)C(=O)N[C@@H](CCCNC(=N)N)C(=O)N[C@H](C(=O)N[C@@H](CCC(=O)O)C(=O)N[C@@H](CC(N)=O)C(=O)N[C@@H](Cc1ccccc1)C(=O)O)[C@@H](C)O` [3102.0929] (H-RSISRTENF-OH), 4.8 nM corresponded to half-maximal inhibition (IC50). Against the preceding molecule, the IC50 is about 7.1-fold higher.

With `C[C@@H](O)[C@H](NC(=O)[C@H](Cc1ccccc1)NC(=O)[C@H](CO)NC(=O)[C@@H](N)CCCNC(=N)N)C(=O)N[C@@H](Cc1ccccc1)C(=O)N[C@@H](CCCCN)C(=O)N[C@@H](CCC(=O)O)C(=O)NCC(=O)N[C@@H](Cc1ccccc1)C(=O)O` [3102.0988] (H-RSFTFKEGF-OH), the IC50 worked out at 35 nM.

The molecule `C[C@@H](O)[C@H](N)C(=O)N[C@@H](CO)C(=O)NCC(=O)N[C@@H](CCCCN)C(=O)N[C@@H](Cc1ccc(O)cc1)C(=O)N[C@@H](Cc1ccccc1)C(=O)N[C@@H](CO)C(=O)N[C@H](C(=O)N[C@@H](Cc1ccccc1)C(=O)O)[C@@H](C)O` [3102.0812] (H-TSGKYFSTF-OH) returned an IC50 of 86 nM. This IC50 is about 2.5-fold higher than that of the molecule before.

On to `CSCC[C@H](NC(=O)[C@H](CCC(N)=O)NC(=O)[C@H](CO)NC(=O)[C@H](CO)NC(=O)[C@@H](N)CC(C)C)C(=O)N[C@H](C(=O)N[C@@H](CO)C(=O)N[C@H](C(=O)N[C@@H](Cc1ccccc1)C(=O)O)[C@@H](C)O)[C@@H](C)O` [3102.0940] (H-LSSQMTSTF-OH), for which half-maximal inhibition (IC50) required 4 nM.

In turn, `CC[C@H](C)[C@H](NC(=O)[C@H](CCSC)NC(=O)[C@@H](N)CO)C(=O)N[C@@H](CC(N)=O)C(=O)N[C@@H](Cc1ccc(O)cc1)C(=O)N[C@@H](Cc1ccc(O)cc1)C(=O)N[C@@H](CC(N)=O)C(=O)N[C@@H](CCC(=O)O)C(=O)N[C@@H](CCSC)C(=O)O` [3102.0985] (H-SMINYYNEM-OH) returned an IC50 of 2.3 nM.

Take `CSCC[C@H](NC(=O)[C@H](Cc1c[nH]cn1)NC(=O)[C@H](CCCCN)NC(=O)[C@H](CC(N)=O)NC(=O)[C@@H](NC(=O)[C@H](CC(N)=O)NC(=O)[C@H](CO)NC(=O)[C@H](CCC(N)=O)NC(=O)[C@@H](N)CCCCN)[C@@H](C)O)C(=O)O` [3102.1026] (H-KQSNTNKHM-OH): the IC50 stood at 28 nM.

Regarding `CC[C@H](C)[C@H](NC(=O)[C@H](CC(C)C)NC(=O)[C@H](CC(=O)O)NC(=O)[C@H](CCCNC(=N)N)NC(=O)[C@H](CCSC)NC(=O)[C@@H](N)CC(N)=O)C(=O)N[C@H](C(=O)N[C@H](C(=O)N[C@@H](Cc1ccccc1)C(=O)O)[C@@H](C)O)C(C)C` [3102.0975] (H-NMRDLIVTF-OH), the IC50 amounted to 8.3 nM.

Turning to `CC[C@H](C)[C@H](N)C(=O)N[C@@H](CC(C)C)C(=O)N[C@@H](CCCCN)C(=O)N[C@@H](CCCCN)C(=O)N[C@@H](CC(C)C)C(=O)N[C@@H](CO)C(=O)N1CCC[C@H]1C(=O)N[C@@H](Cc1ccc(O)cc1)C(=O)N[C@@H](Cc1ccccc1)C(=O)O` [3102.0903] (H-ILKKLSPYF-OH), it took 1.2 nM to reach half-maximal inhibition (IC50).

The molecule `CC[C@H](C)[C@H](NC(=O)CNC(=O)[C@@H]1CCCN1C(=O)[C@@H](NC(=O)[C@H](CCCNC(=N)N)NC(=O)[C@H](CCC(N)=O)NC(=O)[C@H](CCCCN)NC(=O)[C@H](CC(C)C)NC(=O)[C@@H](N)CCCNC(=N)N)[C@@H](C)O)C(=O)O` [3102.0640] (H-RLKQRTPGI-OH) gave an IC50 of 17 nM.

Molecule `CSCC[C@H](NC(=O)[C@H](CCC(=O)O)NC(=O)[C@H](C)NC(=O)[C@H](CC(N)=O)NC(=O)[C@H](CCC(=O)O)NC(=O)[C@H](CCCCN)NC(=O)[C@H](CC(N)=O)NC(=O)[C@H](CCSC)NC(=O)[C@@H](N)CC(C)C)C(=O)O` [3102.0802] (H-LMNKENAEM-OH) had an IC50 of 7.7 nM.

The molecule `NCCCC[C@H](NC(=O)[C@H](CCCCN)NC(=O)[C@H](CO)NC(=O)[C@@H](N)CCCCN)C(=O)N[C@@H](Cc1ccc(O)cc1)C(=O)N[C@@H](CCC(=O)O)C(=O)NCC(=O)N1CCC[C@H]1C(=O)N[C@@H](Cc1ccccc1)C(=O)O` [3102.0833] (H-KSKKYEGPF-OH) returned an IC50 of 1.9 nM.

As for `CSCC[C@H](NC(=O)[C@H](CO)NC(=O)[C@H](CS)NC(=O)[C@H](CO)NC(=O)[C@@H](NC(=O)[C@@H](N)CCCCN)C(C)C)C(=O)N[C@@H](CC(C)C)C(=O)N[C@@H](CCC(=O)O)C(=O)N[C@@H](Cc1ccccc1)C(=O)O` [3102.1010] (H-KVSCSMLEF-OH), inhibition was half-maximal at 0.84 nM (IC50).

In the case of `CSCC[C@H](NC(=O)[C@H](CC(C)C)NC(=O)[C@H](Cc1ccc(O)cc1)NC(=O)[C@H](CCCCN)NC(=O)[C@H](CCSC)NC(=O)[C@@H](N)CO)C(=O)N[C@@H](CC(C)C)C(=O)N[C@@H](CC(C)C)C(=O)N[C@@H](Cc1ccccc1)C(=O)O` [3102.0789] (H-SMKYLMLLF-OH), the IC50 came out at 3.8 nM.

Molecule `CC[C@H](C)[C@H](NC(=O)[C@H](CCC(=O)O)NC(=O)[C@H](Cc1ccccc1)NC(=O)[C@H](Cc1ccccc1)NC(=O)[C@@H](NC(=O)[C@@H](N)Cc1ccc(O)cc1)C(C)C)C(=O)N[C@H](C(=O)N[C@@H](Cc1c[nH]cn1)C(=O)N[C@@H](Cc1ccccc1)C(=O)O)[C@@H](C)CC` [3102.1024] (H-YVFFEIIHF-OH) gave an IC50 of 0.69 nM.

The molecule `CC(C)C[C@H](NC(=O)[C@H](CS)NC(=O)[C@H](CO)NC(=O)[C@H](CCCCN)NC(=O)[C@@H](NC(=O)[C@@H](N)CCCCN)C(C)C)C(=O)N[C@@H](CS)C(=O)N[C@@H](CO)C(=O)N[C@@H](Cc1ccccc1)C(=O)O` [3102.0813] (H-KVKSCLCSF-OH) came in with an IC50 of 17 nM. This IC50 lies about 25-fold higher than the previous one.
